Assay results: patent US7807828B2, “Olanzapine analogs and methods of use thereof” (Hypnion, Inc., priority 2005, dated 2010)
Values joined by “and” are separate entries in the source; they are usually repeats but may differ in a detail not shown here. Equal entries are not always repeated.

Legend:
H1 (rat) = H1 (rat) (Rattus norvegicus, UniProt P31390); assay: H1 (rat) competitive binding assay; details: Table 7A; Ki in nM
Experimental: (§1) Binding assays were performed using various sleep-inducing agents and derivatives selected from those listed in Table 1 in competitive binding assays with known standards for the H1 histamine receptor, and the M1, M2, and M3 muscarinic receptors, alpha 1 and alpha 2 receptors, D1 and D2 receptors, 5HT2a, 5HT2b, 5HT2c, 5HT2c, and 5HT7 receptors.
(§2) The histamine H1 assays are described in Chang, et al., Heterogeneity of Histamine H1-Receptors: Species Variation in [^3H]Mepyramine Binding of Brain Membranes. Journal of Neurochemistry. 32: 1653-1663 (1979); Martinez-Mir, M. I., Pollard, H., Moreau, J., et al. Three Histamine Receptors (H1, H2, and H3) Visualized in the Brain of Human and Non-Human Primates. Brain Res. 526: 322-327 (1990); Haaksma, E. E. J., Leurs, R. and Timmerman, H. Histamine Receptors: Subclasses and Specific Ligands. Pharmac. Ther. 47: 73-104 (1990). The muscarinic assays are described in Buckley, N. J., Bonner, T. I., Buckley, C. M., and Brann, M. R. Antagonist Binding Properties of Five Cloned Muscarinic Receptors Expressed in CHO-K1 Cells. Mol. Pharmacol. 35: 469-476 (1989). The assays were performed according to the preceding articles, with the following modifications. Chemical reagents in the following were obtained from Sigma, St. Louis, Mo.

H1 (hr) [1] = target: T1, H1 (hr) (Homo sapiens, UniProt P35367); assay: H1 (hr) Novascreen binding assay; details: Table 7A; Ki in nM
T1 construct: Novascreen, MDS, Cerep (assay providers)
Experimental: as §1, §2

D1 (h) = D1 (h) (Homo sapiens, UniProt P21728); assay: Dopamine D1 (human recombinant) binding assay; details: Table 7A; unit inferred
Experimental: Dopamine, D1 (human recombinant) binding assay was performed according to published procedures. See, e.g., Jarvie, et al. J. Recept Res., 13(1-4): 573-90 (1993); and Billard, et al. Life Sciences, 35(18): 1885-93 (1984), with modifications

D3 = D3 (Homo sapiens, UniProt P35462); assay: D3 binding; details: Table 7A, printed in column D2 (h); unit inferred
5HT2a (rat) = 5HT2a (rat) (Rattus norvegicus, UniProt P14842); assay: 5HT2a (rat) binding assay; details: Table 7A; unit inferred
Alpha 1 = Alpha 1 binding assay; details: Table 7A; unit inferred
Experimental: as §1

H1 (hr) [2] = target: T1, H1 (hr); assay: H1 (hr) MDS binding assay; details: Table 7A; Ki in nM
Experimental: as §1, §2

H1 (hr) [3] = target: T1, H1 (hr); assay: H1 (hr) Cerep binding assay; details: Table 7A; Ki in nM
Experimental: as §1, §2

Alpha 1B (h) = target: T2, Alpha 1B (h) (Homo sapiens, UniProt P35368); assay: Alpha 1B (h) binding assay; details: Table 7A; unit inferred
T2 sequence (P35368 1-520): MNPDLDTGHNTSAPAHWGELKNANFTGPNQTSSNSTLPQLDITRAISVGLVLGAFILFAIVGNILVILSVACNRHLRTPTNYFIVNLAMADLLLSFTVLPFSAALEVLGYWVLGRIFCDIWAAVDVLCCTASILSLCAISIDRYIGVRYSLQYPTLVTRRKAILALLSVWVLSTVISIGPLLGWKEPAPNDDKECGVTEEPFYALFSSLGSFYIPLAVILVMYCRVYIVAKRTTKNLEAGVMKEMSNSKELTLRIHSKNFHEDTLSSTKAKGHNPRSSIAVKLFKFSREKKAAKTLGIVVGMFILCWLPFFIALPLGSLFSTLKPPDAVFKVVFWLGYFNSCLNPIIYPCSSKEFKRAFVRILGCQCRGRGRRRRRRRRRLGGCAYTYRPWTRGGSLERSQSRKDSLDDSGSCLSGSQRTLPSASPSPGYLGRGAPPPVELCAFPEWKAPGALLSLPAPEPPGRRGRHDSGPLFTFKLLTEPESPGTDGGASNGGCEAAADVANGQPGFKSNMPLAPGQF
Experimental: as §1

5HT2a (h R) = 5HT2a (h R) (Homo sapiens, UniProt P28223); assay: 5HT2a (h R) binding assay; details: Table 7B; unit inferred
Experimental: as §1
(§3) In vitro binding assays are used to determine 5HT2a binding. These binding assays measure the ability of benzisoxazole analogs to displace known standards from the 5HT2a, 5HT2b, 5HT2c, and 5HT7. A decrease in the binding of the compounds to the M1-M3 receptors, relative to the binding of the compound to the 5HT2a receptor, is an indication of the greater specificity of the compound for the 5HT2a receptor over the muscarinic receptor. […] 5HT2a binding is determined as described for example in British Journal of Pharmacology (1995) 115, 622-628.

5HT2b (h) = 5HT2b (h) (Homo sapiens, UniProt P41595); assay: 5HT2b (h) binding assay; details: Table 7B; unit inferred
5HT7 (h) = 5HT7 (h) (Homo sapiens, UniProt P34969); assay: 5HT7 (h) binding assay; details: Table 7B; unit inferred
Experimental: as §1, §3

H1 (rat), sequence (P31390 whole entry): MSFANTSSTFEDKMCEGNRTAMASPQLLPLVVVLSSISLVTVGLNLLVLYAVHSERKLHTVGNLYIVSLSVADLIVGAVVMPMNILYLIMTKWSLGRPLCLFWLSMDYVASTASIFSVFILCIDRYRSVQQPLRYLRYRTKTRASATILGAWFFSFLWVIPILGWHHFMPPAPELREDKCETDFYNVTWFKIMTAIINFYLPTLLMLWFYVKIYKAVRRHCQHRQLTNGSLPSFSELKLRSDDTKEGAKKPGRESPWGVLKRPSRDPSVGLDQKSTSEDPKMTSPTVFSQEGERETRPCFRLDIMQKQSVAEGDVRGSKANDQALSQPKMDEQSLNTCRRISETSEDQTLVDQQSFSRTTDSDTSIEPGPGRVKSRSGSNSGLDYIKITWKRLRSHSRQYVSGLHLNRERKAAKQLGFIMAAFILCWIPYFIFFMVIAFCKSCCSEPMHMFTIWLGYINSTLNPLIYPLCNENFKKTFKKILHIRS
D1 (h), sequence (P21728 whole entry): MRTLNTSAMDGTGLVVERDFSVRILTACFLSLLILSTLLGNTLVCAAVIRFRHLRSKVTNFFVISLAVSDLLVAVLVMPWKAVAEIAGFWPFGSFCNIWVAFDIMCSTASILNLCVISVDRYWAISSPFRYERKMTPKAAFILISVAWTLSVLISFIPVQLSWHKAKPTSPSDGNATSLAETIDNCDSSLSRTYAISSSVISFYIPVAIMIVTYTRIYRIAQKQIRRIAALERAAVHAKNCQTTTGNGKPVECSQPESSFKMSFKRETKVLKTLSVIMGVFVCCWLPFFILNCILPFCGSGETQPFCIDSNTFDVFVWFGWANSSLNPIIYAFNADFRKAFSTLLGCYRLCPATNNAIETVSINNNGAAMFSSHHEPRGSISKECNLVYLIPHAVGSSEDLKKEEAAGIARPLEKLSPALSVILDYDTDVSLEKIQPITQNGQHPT
T1 sequence (P35367 whole entry): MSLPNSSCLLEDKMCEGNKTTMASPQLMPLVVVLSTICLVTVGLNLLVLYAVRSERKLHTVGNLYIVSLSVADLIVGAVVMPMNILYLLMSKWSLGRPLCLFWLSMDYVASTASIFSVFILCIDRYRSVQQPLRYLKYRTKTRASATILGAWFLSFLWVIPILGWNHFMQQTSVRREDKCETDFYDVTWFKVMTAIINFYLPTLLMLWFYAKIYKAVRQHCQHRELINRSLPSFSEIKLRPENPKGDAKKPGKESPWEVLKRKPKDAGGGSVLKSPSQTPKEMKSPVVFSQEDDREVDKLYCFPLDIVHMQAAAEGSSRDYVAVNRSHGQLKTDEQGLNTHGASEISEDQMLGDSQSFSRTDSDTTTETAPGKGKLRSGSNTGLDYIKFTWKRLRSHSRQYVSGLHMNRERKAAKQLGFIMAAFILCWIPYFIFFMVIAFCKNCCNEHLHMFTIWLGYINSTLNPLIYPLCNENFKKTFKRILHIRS
5HT2a (rat), sequence (P14842 whole entry): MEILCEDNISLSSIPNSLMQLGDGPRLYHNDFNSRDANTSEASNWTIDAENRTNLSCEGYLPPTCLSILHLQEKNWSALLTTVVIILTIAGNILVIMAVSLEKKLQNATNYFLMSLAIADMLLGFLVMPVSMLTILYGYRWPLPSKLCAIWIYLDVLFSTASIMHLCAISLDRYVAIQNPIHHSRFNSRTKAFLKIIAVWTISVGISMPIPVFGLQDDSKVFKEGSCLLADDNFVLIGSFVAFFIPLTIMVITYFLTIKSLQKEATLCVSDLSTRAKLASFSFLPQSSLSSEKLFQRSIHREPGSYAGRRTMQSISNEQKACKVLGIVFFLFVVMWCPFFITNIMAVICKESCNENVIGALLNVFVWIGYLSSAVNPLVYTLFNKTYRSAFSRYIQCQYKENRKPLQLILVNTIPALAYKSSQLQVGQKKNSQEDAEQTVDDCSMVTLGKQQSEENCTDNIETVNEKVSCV
5HT2b (h), sequence (P41595 whole entry): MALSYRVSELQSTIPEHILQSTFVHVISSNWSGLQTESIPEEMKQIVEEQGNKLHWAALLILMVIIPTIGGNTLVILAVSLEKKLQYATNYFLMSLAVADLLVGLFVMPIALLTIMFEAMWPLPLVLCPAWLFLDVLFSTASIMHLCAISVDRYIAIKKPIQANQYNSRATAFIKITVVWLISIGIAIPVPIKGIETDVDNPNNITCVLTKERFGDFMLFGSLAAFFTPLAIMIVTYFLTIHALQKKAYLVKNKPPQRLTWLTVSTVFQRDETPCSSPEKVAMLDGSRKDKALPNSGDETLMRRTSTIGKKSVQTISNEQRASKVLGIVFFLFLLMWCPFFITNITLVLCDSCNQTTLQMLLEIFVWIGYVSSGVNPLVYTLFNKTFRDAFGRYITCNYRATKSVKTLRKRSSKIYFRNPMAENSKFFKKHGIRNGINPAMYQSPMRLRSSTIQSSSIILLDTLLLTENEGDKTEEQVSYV
D3, sequence (P35462 whole entry): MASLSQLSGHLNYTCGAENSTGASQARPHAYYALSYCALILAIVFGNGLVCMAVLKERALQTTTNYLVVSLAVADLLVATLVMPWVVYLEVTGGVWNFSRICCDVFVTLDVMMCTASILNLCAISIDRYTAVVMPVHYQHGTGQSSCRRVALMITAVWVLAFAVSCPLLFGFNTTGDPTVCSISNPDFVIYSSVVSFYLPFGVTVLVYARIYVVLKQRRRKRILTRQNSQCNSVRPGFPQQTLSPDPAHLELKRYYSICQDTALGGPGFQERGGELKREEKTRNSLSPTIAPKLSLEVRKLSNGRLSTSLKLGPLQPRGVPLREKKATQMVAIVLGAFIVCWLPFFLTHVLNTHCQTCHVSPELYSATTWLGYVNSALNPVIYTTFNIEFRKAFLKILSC
5HT7 (h), sequence (P34969 whole entry): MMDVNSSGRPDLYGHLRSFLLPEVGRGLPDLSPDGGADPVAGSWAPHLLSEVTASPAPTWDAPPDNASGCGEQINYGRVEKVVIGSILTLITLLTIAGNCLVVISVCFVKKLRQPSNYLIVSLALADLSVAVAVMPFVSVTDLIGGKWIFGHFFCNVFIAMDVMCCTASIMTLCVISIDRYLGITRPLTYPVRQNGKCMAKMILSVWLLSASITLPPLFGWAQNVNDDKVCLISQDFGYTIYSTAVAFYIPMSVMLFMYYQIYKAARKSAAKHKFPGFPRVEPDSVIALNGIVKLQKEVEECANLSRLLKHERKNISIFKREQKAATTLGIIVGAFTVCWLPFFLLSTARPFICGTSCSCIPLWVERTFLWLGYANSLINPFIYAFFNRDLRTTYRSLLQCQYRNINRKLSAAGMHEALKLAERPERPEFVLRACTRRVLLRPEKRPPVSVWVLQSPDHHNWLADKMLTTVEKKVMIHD
5HT2a (h R), sequence (P28223 whole entry): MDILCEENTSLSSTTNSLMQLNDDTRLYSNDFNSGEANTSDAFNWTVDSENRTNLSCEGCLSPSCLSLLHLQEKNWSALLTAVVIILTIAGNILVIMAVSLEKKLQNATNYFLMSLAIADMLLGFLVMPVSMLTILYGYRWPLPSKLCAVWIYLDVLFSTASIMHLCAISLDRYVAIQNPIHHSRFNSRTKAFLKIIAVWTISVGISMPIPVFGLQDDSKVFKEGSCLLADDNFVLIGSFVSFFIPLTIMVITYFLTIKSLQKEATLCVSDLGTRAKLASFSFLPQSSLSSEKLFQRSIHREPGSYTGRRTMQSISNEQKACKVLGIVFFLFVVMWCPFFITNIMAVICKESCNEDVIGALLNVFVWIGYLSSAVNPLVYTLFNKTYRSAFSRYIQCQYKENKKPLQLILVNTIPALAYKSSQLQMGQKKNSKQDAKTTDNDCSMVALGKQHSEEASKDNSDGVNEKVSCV

Ki (H1 (rat))	Ki (H1 (hr) [1])	Ki (D1 (h))	Ki (D3)	Ki (5HT2a (rat))	Ki (Alpha 1)	Ki (H1 (hr) [2])	Ki (H1 (hr) [3])	Ki (Alpha 1B (h))	Ki (5HT2a (h R))	Ki (5HT2b (h))	Ki (5HT7 (h))	SMILES
55.5 nM	70 nM	565 nM	226 nM	10.4 nM								CCc1cc2c(s1)Nc1ccccc1N=C2N1CCN(CC(C)(C)C(=O)O)CC1 [Compound 90]
53 nM	60.6 nM	278 nM		13.3 nM	1960 nM							Cc1cc2c(s1)Nc1ccccc1N=C2N1CCN(CC2(C(=O)O)CC2)CC1 [Compound 91]
95.6 nM	119 nM	129 nM		60.7 nM	2060 nM							Cc1cc2c(s1)Nc1ccccc1N=C2N1CCN(CCC(=O)O)CC1 [Compound 92]
110 nM	62 nM	300 nM		8.2 nM								CC(C)c1cc2c(s1)Nc1ccccc1N=C2N1CCN(CC(C)(C)C(=O)O)CC1 [Compound 94]
34 nM	30 nM and 44 nM	1550 nM		14.5 nM		44 nM	210 nM	2100 nM	200 nM	151 nM and 270 nM	4080 nM	Cc1cc2c(s1)Nc1ccccc1N=C2N1CCN(CC(C)(C)C(=O)O)CC1 [Compound 46]
